Results: ChEMBL document CHEMBL4390652, “Design, biological evaluation and X-ray crystallography of nanomolar multifunctional ligands targeting simultaneously acetylcholinesterase and glycogen synthase kinase-3” (Eur J Med Chem, 2019)

Tests used:
[1] = tested on: Tyrosine-protein kinase ABL1 (Homo sapiens), P00519 [E255K]; assay: Binding affinity to human phosphorylated ABL1 E255K mutant (S229 to K512 residues) expressed in mammalian expression system assessed as residual binding level at 10 uM by Kinomescan method relative to control
[2] = target: Activin receptor type-1-like (Homo sapiens) (UniProt P37023); assay: Binding affinity to wild-type human ACVRL1 (L164 to Q503 residues) expressed in bacterial expression system assessed as residual binding level at 10 uM by Kinomescan method relative to control
[3] = target: Cytoplasmic tyrosine-protein kinase BMX (Homo sapiens) (UniProt P51813); assay: Binding affinity to wild-type human full length BMX (M1 to H675 residues) expressed in bacterial expression system assessed as residual binding level at 10 uM by Kinomescan method relative to control
Cytoplasmic tyrosine-protein kinase BMX (Homo sapiens), sequence (P51813 whole entry, the tested form may be a part): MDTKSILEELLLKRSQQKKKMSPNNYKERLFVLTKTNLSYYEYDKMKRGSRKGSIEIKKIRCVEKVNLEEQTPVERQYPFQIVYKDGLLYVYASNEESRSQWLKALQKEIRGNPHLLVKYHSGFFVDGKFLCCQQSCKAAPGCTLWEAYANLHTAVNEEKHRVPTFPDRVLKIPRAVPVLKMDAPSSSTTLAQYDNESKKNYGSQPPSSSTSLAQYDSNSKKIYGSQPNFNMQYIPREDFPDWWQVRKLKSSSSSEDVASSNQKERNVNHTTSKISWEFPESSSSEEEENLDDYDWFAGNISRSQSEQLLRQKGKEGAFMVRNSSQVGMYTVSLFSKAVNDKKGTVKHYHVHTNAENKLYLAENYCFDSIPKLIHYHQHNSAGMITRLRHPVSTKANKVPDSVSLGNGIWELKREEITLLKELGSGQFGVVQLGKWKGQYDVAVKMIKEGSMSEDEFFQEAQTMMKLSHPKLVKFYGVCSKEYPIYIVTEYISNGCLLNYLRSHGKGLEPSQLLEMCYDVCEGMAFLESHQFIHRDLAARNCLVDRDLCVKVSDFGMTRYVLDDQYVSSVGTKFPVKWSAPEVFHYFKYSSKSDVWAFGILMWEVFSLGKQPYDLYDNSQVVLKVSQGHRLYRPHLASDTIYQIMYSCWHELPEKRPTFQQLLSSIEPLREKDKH

[4] = target: Calcium/calmodulin-dependent protein kinase type II subunit alpha (Homo sapiens) (UniProt Q9UQM7); assay: Binding affinity to wild-type human partial length CAMK2A (M1 to K328 residues) expressed in bacterial expression system assessed as residual binding level at 10 uM by Kinomescan method relative to control
[5] = target: Cyclin-dependent kinase 3 (Homo sapiens) (UniProt Q00526); assay: Binding affinity to wild-type human full length CDK3 (M1 to H305 residues) expressed in bacterial expression system assessed as residual binding level at 10 uM by Kinomescan method relative to control
Cyclin-dependent kinase 3 (Homo sapiens), sequence (Q00526 whole entry, looked up, the tested form may be a part): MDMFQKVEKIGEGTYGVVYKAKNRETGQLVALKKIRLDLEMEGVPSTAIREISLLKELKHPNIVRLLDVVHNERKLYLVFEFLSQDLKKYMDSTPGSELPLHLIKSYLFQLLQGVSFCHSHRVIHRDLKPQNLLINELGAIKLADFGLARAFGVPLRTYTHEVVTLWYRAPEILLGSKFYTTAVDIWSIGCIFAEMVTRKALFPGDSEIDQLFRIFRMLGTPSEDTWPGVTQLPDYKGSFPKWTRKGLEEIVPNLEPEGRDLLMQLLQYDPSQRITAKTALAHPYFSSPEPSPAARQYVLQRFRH

[6] = target: Death-associated protein kinase 3 (Homo sapiens) (UniProt O43293); assay: Binding affinity to wild-type human partial length DAPK3 (M1 to A277 residues) expressed in bacterial expression system assessed as residual binding level at 10 uM by Kinomescan method relative to control
Death-associated protein kinase 3 (Homo sapiens), sequence (O43293 whole entry, looked up, the tested form may be a part): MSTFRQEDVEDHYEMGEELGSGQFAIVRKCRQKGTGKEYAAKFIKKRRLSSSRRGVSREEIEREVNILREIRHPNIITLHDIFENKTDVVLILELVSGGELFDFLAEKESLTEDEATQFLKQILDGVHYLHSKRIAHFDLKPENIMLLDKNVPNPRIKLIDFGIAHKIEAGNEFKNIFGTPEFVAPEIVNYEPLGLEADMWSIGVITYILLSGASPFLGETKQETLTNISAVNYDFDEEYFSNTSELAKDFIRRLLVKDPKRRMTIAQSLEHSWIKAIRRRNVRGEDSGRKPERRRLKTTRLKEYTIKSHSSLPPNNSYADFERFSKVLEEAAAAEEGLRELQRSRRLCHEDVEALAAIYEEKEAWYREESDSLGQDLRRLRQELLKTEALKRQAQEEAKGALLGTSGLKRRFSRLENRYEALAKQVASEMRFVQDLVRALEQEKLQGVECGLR

[7] = target: Serine/threonine-protein kinase DCLK3 (Homo sapiens) (UniProt Q9C098); assay: Binding affinity to wild-type human partial length DCAMKL3 (E140 to V628 residues) expressed in bacterial expression system assessed as residual binding level at 10 uM by Kinomescan method relative to control
Serine/threonine-protein kinase DCLK3 (Homo sapiens), sequence (Q9C098 whole entry, the tested form may be a part): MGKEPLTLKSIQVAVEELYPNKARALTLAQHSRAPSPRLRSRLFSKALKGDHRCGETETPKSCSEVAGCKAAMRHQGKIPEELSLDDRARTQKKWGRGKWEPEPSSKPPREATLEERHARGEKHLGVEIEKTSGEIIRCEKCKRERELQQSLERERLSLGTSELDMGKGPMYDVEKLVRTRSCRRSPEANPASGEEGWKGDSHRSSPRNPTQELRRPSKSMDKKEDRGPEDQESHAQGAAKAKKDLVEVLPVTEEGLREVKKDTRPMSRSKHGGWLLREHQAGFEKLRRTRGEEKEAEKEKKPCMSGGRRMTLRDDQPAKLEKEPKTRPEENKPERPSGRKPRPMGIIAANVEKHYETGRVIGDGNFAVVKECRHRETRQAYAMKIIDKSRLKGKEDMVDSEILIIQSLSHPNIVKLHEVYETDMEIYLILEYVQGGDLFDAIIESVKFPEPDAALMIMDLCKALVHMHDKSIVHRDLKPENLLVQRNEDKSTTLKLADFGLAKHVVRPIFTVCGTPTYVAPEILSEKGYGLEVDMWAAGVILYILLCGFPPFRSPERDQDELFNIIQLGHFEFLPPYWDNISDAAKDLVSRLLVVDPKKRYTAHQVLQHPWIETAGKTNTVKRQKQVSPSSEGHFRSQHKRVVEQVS

[8] = target: Vascular endothelial growth factor receptor 3 (Homo sapiens) (UniProt P35916); assay: Binding affinity to wild-type human partial length FLT4 (E821 to E1196 residues) expressed in bacterial expression system assessed as residual binding level at 10 uM by Kinomescan method relative to control
[9] = target: Hormonally up-regulated neu tumor-associated kinase (Homo sapiens) (UniProt P57058); assay: Binding affinity to wild-type human partial length HUNK (A31 to K354 residues) expressed in bacterial expression system assessed as residual binding level at 10 uM by Kinomescan method relative to control
Hormonally up-regulated neu tumor-associated kinase (Homo sapiens), sequence (P57058 whole entry, the tested form may be a part): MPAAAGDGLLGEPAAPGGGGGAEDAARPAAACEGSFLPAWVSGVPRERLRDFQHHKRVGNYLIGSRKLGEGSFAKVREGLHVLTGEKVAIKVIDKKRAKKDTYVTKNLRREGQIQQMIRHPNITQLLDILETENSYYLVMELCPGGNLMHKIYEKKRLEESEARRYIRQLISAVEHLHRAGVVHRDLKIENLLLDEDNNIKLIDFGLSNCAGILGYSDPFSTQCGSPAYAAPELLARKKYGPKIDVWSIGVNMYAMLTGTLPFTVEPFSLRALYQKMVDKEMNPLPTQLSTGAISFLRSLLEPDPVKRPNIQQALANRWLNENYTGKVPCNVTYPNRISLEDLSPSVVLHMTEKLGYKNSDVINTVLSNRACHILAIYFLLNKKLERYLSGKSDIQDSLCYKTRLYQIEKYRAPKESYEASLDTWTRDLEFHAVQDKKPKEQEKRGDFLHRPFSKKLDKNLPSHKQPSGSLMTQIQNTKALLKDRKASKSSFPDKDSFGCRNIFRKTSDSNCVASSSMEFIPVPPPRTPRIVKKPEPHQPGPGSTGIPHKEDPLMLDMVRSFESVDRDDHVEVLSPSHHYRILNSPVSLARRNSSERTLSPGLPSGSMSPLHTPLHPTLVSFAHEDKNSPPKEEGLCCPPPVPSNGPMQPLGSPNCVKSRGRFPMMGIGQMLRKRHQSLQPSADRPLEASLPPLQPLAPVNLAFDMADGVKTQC

[10] = target: Tyrosine-protein kinase JAK1 (Homo sapiens) (UniProt P23458); assay: Binding affinity to wild-type human partial length JAK1 JH1 catalytic domain (V856 to K1154 residues) expressed in bacterial expression system assessed as residual binding level at 10 uM by Kinomescan method relative to control
[11] = target: Serine/threonine-protein kinase LATS1 (Homo sapiens) (UniProt O95835); assay: Binding affinity to wild-type human partial length LATS1 (Q678 to V1130 residues) expressed in bacterial expression system assessed as residual binding level at 10 uM by Kinomescan method relative to control
[12] = target: Hepatocyte growth factor receptor (Homo sapiens) (UniProt P08581); assay: Binding affinity to wild-type human partial length MET (D1010 to S1367 residues) expressed in bacterial expression system assessed as residual binding level at 10 uM by Kinomescan method relative to control
[13] = target: Myosin light chain kinase 2, skeletal/cardiac muscle (Homo sapiens) (UniProt Q9H1R3); assay: Binding affinity to wild-type human partial length MYLK2 (D258 to K570 residues) expressed in bacterial expression system assessed as residual binding level at 10 uM by Kinomescan method relative to control
[14] = target: Serine/threonine-protein kinase Nek5 (Homo sapiens) (UniProt Q6P3R8); assay: Binding affinity to wild-type human partial length NEK5 (M1 to M279 residues) expressed in bacterial expression system assessed as residual binding level at 10 uM by Kinomescan method relative to control
[15] = target: Calcium-dependent protein kinase 1 (Plasmodium falciparum) (UniProt P62344); assay: Binding affinity to wild-type Plasmodium falciparum full length CDPK1 (M1 to S524 residues) expressed in mammalian expression system assessed as residual binding level at 10 uM by Kinomescan method relative to control
Calcium-dependent protein kinase 1 (Plasmodium falciparum), sequence (P62344 2-524 limits assumed): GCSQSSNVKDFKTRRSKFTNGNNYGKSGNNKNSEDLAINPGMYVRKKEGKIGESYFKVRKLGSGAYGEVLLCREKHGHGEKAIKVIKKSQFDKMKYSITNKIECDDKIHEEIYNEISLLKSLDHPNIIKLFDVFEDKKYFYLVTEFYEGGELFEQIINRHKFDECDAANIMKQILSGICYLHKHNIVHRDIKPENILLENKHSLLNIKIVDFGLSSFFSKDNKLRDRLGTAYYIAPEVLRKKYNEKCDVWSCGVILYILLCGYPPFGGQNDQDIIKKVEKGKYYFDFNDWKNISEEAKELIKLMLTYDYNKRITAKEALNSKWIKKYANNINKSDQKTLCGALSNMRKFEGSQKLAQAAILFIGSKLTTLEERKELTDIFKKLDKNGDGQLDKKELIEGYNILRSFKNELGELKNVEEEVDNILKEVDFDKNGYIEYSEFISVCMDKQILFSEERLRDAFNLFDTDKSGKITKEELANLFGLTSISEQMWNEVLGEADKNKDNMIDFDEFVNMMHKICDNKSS

[16] = target: Cyclin-dependent kinase 2 homolog (Plasmodium falciparum (isolate 3D7)) (UniProt P61075); assay: Binding affinity to wild-type Plasmodium falciparum full length PK5 (M1 to N288 residues) expressed in mammalian expression system assessed as residual binding level at 10 uM by Kinomescan method relative to control
Cyclin-dependent kinase 2 homolog (Plasmodium falciparum (isolate 3D7)), sequence (P61075 whole entry, the tested form may be a part, canonical isoform): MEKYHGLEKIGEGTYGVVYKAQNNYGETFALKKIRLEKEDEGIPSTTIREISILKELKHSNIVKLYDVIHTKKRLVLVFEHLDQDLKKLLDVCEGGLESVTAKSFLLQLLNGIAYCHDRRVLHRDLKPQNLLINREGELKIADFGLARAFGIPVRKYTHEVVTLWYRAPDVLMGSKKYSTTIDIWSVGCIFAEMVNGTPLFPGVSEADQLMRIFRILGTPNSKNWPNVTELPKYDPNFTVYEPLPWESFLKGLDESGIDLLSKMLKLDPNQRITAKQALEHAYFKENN

[17] = target: Phosphatidylinositol 4,5-bisphosphate 3-kinase catalytic subunit beta isoform (Homo sapiens) (UniProt P42338); assay: Binding affinity to wild-type human partial length PIK3CB (P118 to S1070 residues) expressed in mammalian expression system assessed as residual binding level at 10 uM by Kinomescan method relative to control
[18] = target: 1-phosphatidylinositol 3-phosphate 5-kinase (Homo sapiens) (UniProt Q9Y2I7); assay: Binding affinity to wild-type human partial length PIKFYVE (F1512 to C2098 residues) expressed in mammalian expression system assessed as residual binding level at 10 uM by Kinomescan method relative to control
[19] = target: Serine/threonine-protein kinase PLK3 (Homo sapiens) (UniProt Q9H4B4); assay: Binding affinity to wild-type human partial length PLK3 (A42 to L334 residues) expressed in mammalian expression system assessed as residual binding level at 10 uM by Kinomescan method relative to control
Serine/threonine-protein kinase PLK3 (Homo sapiens), sequence (Q9H4B4 whole entry, looked up, the tested form may be a part): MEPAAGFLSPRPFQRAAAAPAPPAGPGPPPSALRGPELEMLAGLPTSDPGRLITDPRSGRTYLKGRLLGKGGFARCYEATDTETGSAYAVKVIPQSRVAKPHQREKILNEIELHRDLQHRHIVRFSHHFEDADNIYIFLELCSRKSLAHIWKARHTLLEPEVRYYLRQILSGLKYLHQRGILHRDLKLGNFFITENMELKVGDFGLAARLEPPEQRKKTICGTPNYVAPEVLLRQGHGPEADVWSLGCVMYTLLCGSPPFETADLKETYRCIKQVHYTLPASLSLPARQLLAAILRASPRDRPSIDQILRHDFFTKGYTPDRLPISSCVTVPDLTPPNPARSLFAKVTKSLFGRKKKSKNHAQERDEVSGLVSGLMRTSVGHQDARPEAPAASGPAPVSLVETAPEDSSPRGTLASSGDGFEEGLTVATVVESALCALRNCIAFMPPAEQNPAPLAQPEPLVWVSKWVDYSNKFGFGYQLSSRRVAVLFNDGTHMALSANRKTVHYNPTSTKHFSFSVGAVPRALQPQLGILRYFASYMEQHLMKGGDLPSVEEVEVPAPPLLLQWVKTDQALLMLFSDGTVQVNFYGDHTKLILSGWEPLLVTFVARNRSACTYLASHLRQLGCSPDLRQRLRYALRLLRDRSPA

[20] = target: Rho-associated protein kinase 2 (Homo sapiens) (UniProt O75116); assay: Binding affinity to wild-type human partial length ROCK2 (M1 to T431 residues) expressed in mammalian expression system assessed as residual binding level at 10 uM by Kinomescan method relative to control
[21] = target: Ribosomal protein S6 kinase alpha-1 (Homo sapiens) (UniProt Q15418); assay: Binding affinity to wild-type human partial length N-terminal RSK1 Kinase domain 1 (M1 to E388 residues) expressed in bacterial expression system assessed as residual binding level at 10 uM by Kinomescan method relative to control
Ribosomal protein S6 kinase alpha-1 (Homo sapiens), sequence (Q15418 whole entry, the tested form may be a part): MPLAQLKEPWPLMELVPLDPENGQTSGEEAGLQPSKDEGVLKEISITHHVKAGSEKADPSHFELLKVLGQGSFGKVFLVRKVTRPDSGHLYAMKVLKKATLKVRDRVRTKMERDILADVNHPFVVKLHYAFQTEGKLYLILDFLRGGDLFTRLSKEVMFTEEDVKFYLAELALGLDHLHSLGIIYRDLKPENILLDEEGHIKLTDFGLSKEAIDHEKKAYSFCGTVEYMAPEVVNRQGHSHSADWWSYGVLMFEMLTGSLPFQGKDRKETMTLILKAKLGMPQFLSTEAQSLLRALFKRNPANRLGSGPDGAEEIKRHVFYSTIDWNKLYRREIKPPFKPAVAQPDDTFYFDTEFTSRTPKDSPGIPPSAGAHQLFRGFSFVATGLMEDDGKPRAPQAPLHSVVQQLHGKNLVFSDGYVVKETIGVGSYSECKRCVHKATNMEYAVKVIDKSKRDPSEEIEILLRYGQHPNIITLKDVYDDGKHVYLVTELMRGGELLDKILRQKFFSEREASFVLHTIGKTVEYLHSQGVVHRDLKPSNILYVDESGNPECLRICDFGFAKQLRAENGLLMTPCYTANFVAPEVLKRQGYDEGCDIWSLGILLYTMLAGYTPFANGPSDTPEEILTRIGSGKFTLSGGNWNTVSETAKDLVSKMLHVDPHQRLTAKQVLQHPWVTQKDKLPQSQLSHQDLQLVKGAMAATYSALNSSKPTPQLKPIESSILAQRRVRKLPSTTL

[22] = target: Serine/threonine-protein kinase ULK2 (Homo sapiens) (UniProt Q8IYT8); assay: Binding affinity to wild-type human partial length ULK2 (M1 to S301 residues) expressed in mammalian expression system assessed as residual binding level at 10 uM by Kinomescan method relative to control
[23] = target: Wee1-like protein kinase (Homo sapiens) (UniProt P30291); assay: Binding affinity to wild-type human partial length WEE1 (M291 to K575 residues) expressed in bacterial expression system assessed as residual binding level at 10 uM by Kinomescan method relative to control
[24] = target: Glycogen synthase kinase-3 (Sus scrofa, UniProt B2LUN4+I6LNT8)
Description: Inhibition of native porcine brain GSK-3alpha/beta using GS-1 as substrate incubated for 30 mins in presence of [gamma-33P]ATP by liquid scintillation counting assay

## O=C(Nc1cc(-c2cn(CCNc3c4c(nc5ccccc35)CCCC4)nn2)ccn1)Nc1cccc2c1C1CCCCN1C2=O (racemic)
[1]
  Activity: 1.8%
[2]
  Activity: 100%
[3]
  Activity: 100%
[4]
  Activity: 79%
[5]
  Activity: 90%
[6]
  Activity: 66%
[7]
  Activity: 33%
[8]
  Activity: 2.7%
[9]
  Activity: 100%
[10]
  Activity: 84%
[11]
  Activity: 90%
[12]
  Activity: 57%
[13]
  Activity: 24%
[14]
  Activity: 82%
[15]
  Activity: 4%
[16]
  Activity: 100%
[17]
  Activity: 53%
[18]
  Activity: 15%
[19]
  Activity: 77%
[20]
  Activity: 26%
[21]
  Activity: 3.9%
[22]
  Activity: 16%
[23]
  Activity: 100%
[24]
  IC50: 16 nM
